According to PubChem BioAssay (NCI):
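Five concentrations, 48 hours, 96-well plates. At the GI50, growth is halved. TGI denotes the concentration required for complete inhibition of growth.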

Tests used:
Assay in all cases: NCI-60 cell line screen, 48 h
[1] = tested on: HT29 colon
[2] = tested on: NCI/ADR-RES ovarian
[3] = tested on: ACHN renal
[4] = tested on: MDA-MB-231 breast
[5] = tested on: PC-3 prostate
[6] = tested on: HCC-2998 colon
[7] = tested on: MCF7 breast
[8] = tested on: MDA-MB-468 breast
[9] = tested on: SF-268 CNS
[10] = tested on: HOP-92 NSCLC
[11] = tested on: MOLT-4 leukemia
[12] = tested on: OVCAR-3 ovarian
[13] = tested on: T-47D breast
[14] = tested on: OVCAR-4 ovarian
[15] = tested on: NCI-H23 lung
[16] = tested on: BT-549 breast
[17] = tested on: TK-10 renal
[18] = tested on: 786-0 renal
[19] = tested on: NCI-H460 lung
[20] = tested on: RXF 393 renal
[21] = tested on: HCT-15 colon
[22] = tested on: SF-295 CNS
[23] = tested on: OVCAR-8 ovarian
[24] = tested on: HL-60(TB) leukemia
[25] = tested on: SK-MEL-28 melanoma
[26] = tested on: SNB-75 CNS
[27] = tested on: MDA-MB-435
[28] = tested on: MALME-3M melanoma
[29] = tested on: HCT-116 colon
[30] = tested on: CCRF-CEM leukemia
[31] = tested on: IGROV1 ovarian
[32] = tested on: CAKI-1 renal
[33] = tested on: SW-620 colon
[34] = tested on: SNB-19 CNS
[35] = tested on: NCI-H522 lung
[36] = tested on: SK-OV-3 ovarian
[37] = tested on: UACC-257 melanoma
[38] = tested on: SK-MEL-5 melanoma
[39] = tested on: UACC-62 melanoma
[40] = tested on: SF-539 CNS
[41] = tested on: DU-145 prostate
[42] = tested on: EKVX NSCLC
[43] = tested on: OVCAR-5 ovarian
[44] = tested on: NCI-H226 lung
[45] = tested on: HOP-62 NSCLC
[46] = tested on: K-562 leukemia
[47] = tested on: KM12 colon
[48] = tested on: A498 renal
[49] = tested on: SN12C renal
[50] = tested on: LOX IMVI melanoma
[51] = tested on: M14 melanoma
[52] = tested on: SK-MEL-2 melanoma
[53] = tested on: COLO 205 colon
[54] = tested on: HS 578T breast
[55] = tested on: SR leukemia
[56] = tested on: A549 NSCLC
[57] = tested on: U251 CNS
[58] = tested on: RPMI-8226 leukemia
[59] = tested on: UO-31 renal

## C#C[C@]1(O)CC[C@H]2[C@@H]3CC=C4c5sc(-c6ccc([N+](=O)[O-])cc6)nc5CC[C@]4(C)[C@H]3CC[C@@]21C
[1]
  GI50: 11.4 µM
  TGI: 35.2 µM
[2]
  GI50: 16.4 µM
  TGI: 67.9 µM
[3]
  GI50: 12.2 µM
  TGI: 24.6 µM
[4]
  GI50: 12.3 µM
  TGI: 27.4 µM
[5]
  GI50: 7.18 µM
  TGI: 95.7 µM
[6]
  GI50: 7.21 µM
  TGI: 23.1 µM
[7]
  GI50: 3.07 µM
  TGI: 16.6 µM
[8]
  GI50: 12.4 µM
  TGI: 28.9 µM
[9]
  GI50: 12.8 µM
  TGI: 43.6 µM
[10]
  GI50: 22.3 µM
  TGI: 47.4 µM
[11]
  GI50: 2.61 µM
  TGI: 33.1 µM
[12]
  GI50: 14.9 µM
  TGI: 31.7 µM
[13]
  GI50: 7.23 µM
  TGI: 25.2 µM
[14]
  GI50: 15.4 µM
  TGI: 43.7 µM
[15]
  GI50: 13.8 µM
  TGI: 29.9 µM
[16]
  GI50: 3.76 µM
  TGI: 16.7 µM
[17]
  GI50: 13.8 µM
  TGI: 26.7 µM
[18]
  GI50: 1.84 µM
  TGI: 13.4 µM
[19]
  GI50: 6.19 µM
  TGI: 25.8 µM
[20]
  GI50: 0.625 µM
  TGI: 3.18 µM
[21]
  GI50: 3.99 µM
  TGI: 23.9 µM
[22]
  GI50: 0.41 µM
  TGI: 1.8 µM
[23]
  GI50: 15.3 µM
  TGI: 38.5 µM
[24]
  GI50: 13.5 µM
  TGI: 42.6 µM
[25]
  GI50: 7.33 µM
  TGI: 20.5 µM
[26]
  GI50: 2.93 µM
  TGI: 18.6 µM
[27]
  GI50: 11.9 µM
  TGI: 25.9 µM
[28]
  GI50: 3.59 µM
  TGI: 16.5 µM
[29]
  GI50: 10.2 µM
  TGI: 23.3 µM
[30]
  GI50: 4.36 µM
  TGI: 31.9 µM
[31]
  GI50: 10.3 µM
  TGI: 30.9 µM
[32]
  GI50: 10.8 µM
  TGI: 22.7 µM
[33]
  GI50: 8.39 µM
  TGI: 27.2 µM
[34]
  GI50: 13.8 µM
  TGI: 29.8 µM
[35]
  GI50: 15.1 µM
  TGI: 38 µM
[36]
  GI50: 12.3 µM
  TGI: 30.6 µM
[37]
  GI50: 12.1 µM
  TGI: 25 µM
[38]
  GI50: 5.45 µM
  TGI: 17.9 µM
[39]
  GI50: 14.3 µM
  TGI: 27.4 µM
[40]
  GI50: 0.895 µM
  TGI: 3.61 µM
[41]
  GI50: 12.8 µM
  TGI: 30.3 µM
[42]
  GI50: 10.1 µM
  TGI: 23.8 µM
[43]
  GI50: 12 µM
  TGI: 24.3 µM
[44]
  GI50: 18.1 µM
  TGI: 50.2 µM
[45]
  GI50: 11.5 µM
  TGI: 30 µM
[46]
  GI50: 3.26 µM
  TGI: > 100 µM
[47]
  GI50: 17 µM
  TGI: 38.4 µM
[48]
  GI50: 4.04 µM
  TGI: 13.8 µM
[49]
  GI50: 13 µM
  TGI: 26.3 µM
[50]
  GI50: 6.89 µM
  TGI: 33.1 µM
[51]
  GI50: 2.74 µM
  TGI: 12.2 µM
[52]
  GI50: 7.18 µM
  TGI: 21.3 µM
[53]
  GI50: 14.9 µM
  TGI: 33.8 µM
[54]
  GI50: 2.04 µM
  TGI: 10.3 µM
[55]
  GI50: 2.49 µM
  TGI: > 100 µM
[56]
  GI50: 12.5 µM
  TGI: 36.2 µM
[57]
  GI50: 2.99 µM
  TGI: 18.8 µM
[58]
  GI50: 0.404 µM
  TGI: 6.27 µM
[59]
  GI50: 5.02 µM
  TGI: 16.2 µM
